SMILES strings stand for the structures.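 Compound exposure: 48 hours, 5 concentrations, 96-well plates. GI50 marks 50% less growth.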 Activity calls are given as the source filed them. No stated cut-off is given here; in the data, active = GI50 up to about 1.1 µM and inactive = higher. Square brackets hold non-standard residues; d marks the D form. Peptide text beside a SMILES is read from it. * marks the point of attachment. ξ: configuration not given here. Propanoyl(3-(4-MeO-Ph)) = COc1ccc(CCC(=O)*)cc1; Thr(3ξ) = CC(O)[C@H](N)C(=O)O; dNMeL = CN[C@H](CC(C)C)C(=O)O; ξLac = CC(O)C(=O)O A value given as a limit tells only on which side of the number the result lay.

Among the test systems are UO-31; OVCAR-5; HCT-116; TK-10; NCI-H522; UACC-62; OVCAR-3; OVCAR-4; SNB-75; BT-549; HCC 2998; UACC-257; HOP-62; SK-MEL-28; NCI-H23; SNB-19; HOP-92; RPMI-8226; U-251.
Common to all, as to experiment: DTP human tumour cell line panel, 48 h

The term GI50 denotes the concentration that inhibits growth by half. Take `CCCCCCCCCC[C@H](O)[C@H](O)CC[C@@H](O)[C@H]1CC[C@@H]([C@H]2CC[C@H](CCCCCCC[C@@H](O)CC3=C[C@H](C)OC3=O)O2)O1`: the GI50 with UO-31 was 1.22 µM (inactive); in the assay on OVCAR-5, 6.28 µM (inactive); in the assay on HCT-116 it was 2.64 µM (inactive); with TK-10 it was 4.95 µM (inactive); in the assay on NCI-H522, 15.1 µM (inactive); in the assay with UACC-62, 1.67 µM (inactive). The GI50 with OVCAR-3 is 1.42 µM (inactive); in the assay on OVCAR-4 it was 24.4 µM (inactive); in the assay on SNB-75, 2.41 µM (inactive); with BT-549, 37.5 µM (inactive); in the assay on HCC 2998, 18.8 µM (inactive); with UACC-257, 1.55 µM (inactive). Also, the GI50 with HOP-62 was 2.42 µM (inactive); with SK-MEL-28, 2.41 µM (inactive); in the assay on NCI-H23 it was 0.00746 µM (active); in the assay with SNB-19, 1.84 µM (inactive); with HOP-92, 6.32 µM (inactive); in the assay with RPMI-8226, 0.82 µM (active). The GI50 in the assay on U-251 was 41.5 µM (inactive).

Consider `CC(/C=C/C(=O)NO)=C\C(C)C(=O)c1ccc(N(C)C)cc1` (configuration not stated), for which the GI50 with UO-31 is 0.0498 µM (active); in the assay with OVCAR-5, 0.114 µM (active); with HCT-116, < 0.01 µM (active); with TK-10, < 0.0177 µM (active); in the assay on NCI-H522, < 0.01 µM (active); with UACC-62 it was 0.0512 µM (active). Moreover, the GI50 was 0.0119 µM (active) in the assay with OVCAR-3; 0.0409 µM (active) in the assay on OVCAR-4; 0.0244 µM (active) in the assay with SNB-75; 0.424 µM (active) with BT-549; < 0.01 µM (active) in the assay with HCC 2998; 0.0614 µM (active) in the assay with UACC-257. Moreover, the GI50 in the assay with HOP-62 is 0.0391 µM (active); in the assay on SK-MEL-28, 0.479 µM (active); with NCI-H23, 0.0331 µM (active); in the assay on SNB-19 it was 0.0281 µM (active); in the assay with HOP-92 it was 0.0652 µM (active); in the assay with RPMI-8226 it was < 0.01 µM (active). Further, in the assay with U-251, the concentration for 50% growth inhibition (GI50) is 0.0142 µM (active).

With `Nc1nc(Cl)cc(NCC2(O)CCC2)n1`, the GI50 is 56.5 µM (inactive) in the assay with UO-31; > 100 µM (inactive) in the assay on OVCAR-5; > 100 µM (inactive) in the assay on HCT-116; > 100 µM (inactive) with TK-10; > 100 µM (inactive) in the assay with NCI-H522; > 100 µM (inactive) in the assay with UACC-62. For the same molecule, the GI50 in the assay with OVCAR-3, in the assay on OVCAR-4, with SNB-75, in the assay with BT-549, with HCC 2998 and in the assay on UACC-257 was > 100 µM (inactive) throughout. The GI50 with HOP-62, with SK-MEL-28, in the assay on NCI-H23, in the assay with HOP-92, in the assay on RPMI-8226 and with U-251 was > 100 µM (inactive) throughout.

On to `c1ccc(CSc2nc(N3CCCCC3)c3cn[nH]c3n2)cc1`, for which the GI50 in the assay on UO-31 was 16.6 µM (inactive); in the assay on OVCAR-5, 27.9 µM (inactive); in the assay on HCT-116, 19.2 µM (inactive); in the assay with TK-10, 30.1 µM (inactive); in the assay on NCI-H522, 17 µM (inactive); in the assay with UACC-62, 15.4 µM (inactive). The GI50 in the assay on OVCAR-3 is 24.5 µM (inactive); in the assay with OVCAR-4, 36.1 µM (inactive); in the assay with SNB-75 it was 20.7 µM (inactive); in the assay with BT-549, 16.5 µM (inactive); in the assay with HCC 2998 it was 18.7 µM (inactive); in the assay on UACC-257 it was 18 µM (inactive). For the same molecule, the GI50 in the assay on HOP-62 is 17.1 µM (inactive); in the assay with SK-MEL-28 it was 19.9 µM (inactive); in the assay with NCI-H23 it was 26.4 µM (inactive); in the assay on SNB-19, 25.2 µM (inactive); in the assay with HOP-92, 21.3 µM (inactive); in the assay on RPMI-8226, 26.6 µM (inactive). The GI50 in the assay with U-251 is 19.1 µM (inactive).

For the molecule `CC(C)(CN)CN`, the GI50 in the assay with UO-31, in the assay with OVCAR-5, with HCT-116, in the assay on TK-10, in the assay with NCI-H522 and in the assay on UACC-62 was > 100 µM (inactive) in each case. Also, the GI50 in the assay with OVCAR-3, with OVCAR-4, in the assay on SNB-75, with BT-549, in the assay on HCC 2998 and in the assay with UACC-257 was > 100 µM (inactive) in each case. Also, the GI50 in the assay with HOP-62, in the assay with SK-MEL-28, with NCI-H23, in the assay on SNB-19, with HOP-92 and with RPMI-8226 was > 100 µM (inactive) each time. Besides, the GI50 with U-251 is > 100 µM (inactive).

Regarding `COC(=O)[C@@H](NC(=O)[C@@H](CC(C)C)N(C)C(=O)[C@@H]1CCCN1C(=O)C(C)O)C(C)OC(=O)CCc1ccc(OC)cc1` (some centres not stated) (H-[ξLac]P[dNMeL][Thr(3ξ)](Propanoyl(3-(4-MeO-Ph)))-OMe), the GI50 in the assay with UO-31, in the assay with OVCAR-5, in the assay with HCT-116, in the assay on TK-10, in the assay with NCI-H522 and with UACC-62 was > 100 µM (inactive) in each case. Besides, the GI50 in the assay with OVCAR-3, in the assay on OVCAR-4, with SNB-75, with BT-549, in the assay on HCC 2998 and in the assay with UACC-257 was > 100 µM (inactive) in each case. Moreover, the GI50 with HOP-62, in the assay on SK-MEL-28, with NCI-H23, with SNB-19, with HOP-92 and with RPMI-8226 was > 100 µM (inactive) throughout. Moreover, the GI50 with U-251 is > 100 µM (inactive).

As for `O=[N+]([O-])c1ccc(S(=O)(=O)Cc2ccccc2)c([N+](=O)[O-])c1`, the GI50 was 1.58 µM (inactive) in the assay on UO-31; 9.55 µM (inactive) with OVCAR-5; 1.87 µM (inactive) with HCT-116; 1.88 µM (inactive) in the assay on TK-10; 0.748 µM (active) in the assay on NCI-H522; 2.24 µM (inactive) with UACC-62. Also, the GI50 was 1.44 µM (inactive) with OVCAR-3; 2.2 µM (inactive) with OVCAR-4; 7.48 µM (inactive) with SNB-75; 2.1 µM (inactive) in the assay on BT-549; 7.43 µM (inactive) in the assay on HCC 2998; 1.67 µM (inactive) in the assay on UACC-257. Also, the GI50 was 2.9 µM (inactive) in the assay with HOP-62; 4.06 µM (inactive) in the assay on SK-MEL-28; 1.9 µM (inactive) in the assay on NCI-H23; 17.6 µM (inactive) in the assay with SNB-19; 1.79 µM (inactive) in the assay on HOP-92; 1.4 µM (inactive) in the assay on RPMI-8226. Moreover, the GI50 in the assay on U-251 was 2.23 µM (inactive).

As for `Cc1cc(-c2nc3ccccc3s2)ccc1N`, the GI50 with UO-31 is 6.92 µM (inactive); in the assay with OVCAR-5, 19.5 µM (inactive); with HCT-116 it was 46.7 µM (inactive); with TK-10, 0.0302 µM (active); with NCI-H522 it was 18.5 µM (inactive); in the assay on UACC-62, 46.1 µM (inactive). The GI50 was 35.9 µM (inactive) in the assay on OVCAR-3; 4.98 µM (inactive) in the assay with OVCAR-4; 35.3 µM (inactive) with SNB-75; 48.3 µM (inactive) with BT-549; 5.98 µM (inactive) with HCC 2998; 81.5 µM (inactive) in the assay with UACC-257. Further, the GI50 in the assay with HOP-62 was 49.9 µM (inactive); in the assay on SK-MEL-28, > 76.6 µM (inactive); with NCI-H23 it was 40.4 µM (inactive); with SNB-19 it was > 70.1 µM (inactive); with HOP-92 it was > 100 µM (inactive); in the assay with RPMI-8226, 9.79 µM (inactive). Moreover, the GI50 with U-251 is 45 µM (inactive).

On to `O=c1[nH]/c(=C/c2ccc(OCc3ccccc3)cn2)c(=O)[nH]/c1=C/c1ccc(Cl)cc1`, for which the GI50 in the assay with UO-31 is 2.7 µM (inactive); in the assay with OVCAR-5, > 100 µM (inactive); with TK-10 it was 15.1 µM (inactive); in the assay on NCI-H522, 0.723 µM (active); with UACC-62, 1.94 µM (inactive); with OVCAR-3, 0.653 µM (active). In addition, the GI50 was 2.42 µM (inactive) with OVCAR-4; 1.86 µM (inactive) in the assay with SNB-75; 0.344 µM (active) in the assay with BT-549; 2.52 µM (inactive) in the assay on HCC 2998; 1 µM (active) in the assay on UACC-257; 1.33 µM (inactive) with HOP-62. The GI50 with SK-MEL-28 is > 76.7 µM (inactive); in the assay on NCI-H23, 7.87 µM (inactive); in the assay on SNB-19 it was 5.55 µM (inactive); with HOP-92, 13.9 µM (inactive); in the assay with RPMI-8226, 3.81 µM (inactive); in the assay on U-251 it was 4.35 µM (inactive).

For `CCOC(=O)C(=Cc1[nH]c2ccccc2c1-c1c[nH]c2ccccc12)C(=O)OCC`, the GI50 with UO-31 is 13.5 µM (inactive); with OVCAR-5 it was 15.1 µM (inactive); in the assay with HCT-116 it was 10.8 µM (inactive); with TK-10 it was 12.7 µM (inactive); in the assay on NCI-H522 it was 54.7 µM (inactive); with UACC-62, 4.88 µM (inactive). Also, the GI50 with OVCAR-3 was 9.33 µM (inactive); in the assay on OVCAR-4 it was 6.76 µM (inactive); in the assay with SNB-75, 12.9 µM (inactive); in the assay with BT-549 it was 14.7 µM (inactive); with HCC 2998, 11.6 µM (inactive); in the assay with UACC-257, 10.4 µM (inactive). Also, the GI50 in the assay with HOP-62 was 14.2 µM (inactive); in the assay on NCI-H23, 15.3 µM (inactive); with SNB-19 it was 14.2 µM (inactive); in the assay on HOP-92, 11 µM (inactive); in the assay with RPMI-8226, 2.84 µM (inactive); with U-251, 11.7 µM (inactive).

The values are drawn from ChEMBL document CHEMBL1201862, “PubChem BioAssay data set” (2004).
